Test results published in patent US5559158A, “Pharmaceutical composition” (Abbott Laboratories, priority 1994, dated 1996).

Tests used:
[1] = Oral bioavailability study in dogs; parameters: species or system beagle dogs; settings: dog, in vivo, 5 mg/kg, summary statement, dose not stated
Experimental: Each dog received a single solid dosage form corresponding to a 5 mg/kg dose of the drug.

HIV-1 protease = assay: Inhibition of HIV-1 protease; format: biochemical; settings: in words
HIV-2 protease = assay: Inhibition of HIV-2 protease; format: biochemical; settings: in words
[2] = listed as compound of formula II

## CC(C)c1nc(CN(C)C(=O)NC(C(=O)N[C@@H](Cc2ccccc2)C[C@H](O)[C@H](Cc2ccccc2)NC(=O)OCc2cncs2)C(C)C)cs1 (stereo partly drawn) [Compound III, (2S,3S,5S)-5-(N-(N-((N-Methyl-N-((2-isopropyl-4-thiazolyl)methyl)-amino)carbonyl)valinyl)amino)-2-(N((5-thiazolyl)methoxycarbonyl)amino)-1,6-diphenyl-3-hydroxyhexane]
[1]
  bioavailability: < 2%
HIV-1 protease
  inhibition of HIV-1 protease: inhibitors
HIV-2 protease
  inhibition of HIV-2 protease: inhibitors

## CC(C)c1nc(CN(C)C(=O)NC(C(=O)NC(Cc2ccccc2)CC(O)C(Cc2ccccc2)NC(=O)OCc2cncs2)C(C)C)cs1 (stereo not shown) [Compound II]
HIV-1 protease
  inhibition of HIV-1 protease: inhibitors
HIV-1 protease; [2]
  inhibition of HIV-1 protease: especially effective
HIV-2 protease
  inhibition of HIV-2 protease: inhibitors
HIV-2 protease; [2]
  inhibition of HIV-2 protease: especially effective
